Measured values from US8673979B2, “Pharmaceutical compositions for headache, migraine, nausea and emesis” (Meditor Pharmaceuticals Ltd., priority 2000, dated 2014).

Assays:
[1] = system: migraine attack; assay: Case reports: oral tablets during migraine attacks; assay type: in vivo, human; details: for Side effects of past medical treatment: in vivo
Method: Previous medical history: The subject is a smoking person first diagnosed as a classical migraine sufferer. Except for this they are completely healthy. Until two years ago the frequency of the migraine attacks was seven episodes per month. During the last two years they were treated with different kinds of recognized medications, with little or no success. Due to lack of response to the medical treatment during the migraine attacks, they tried alternative medicine treatments.
First attack: The subject suffered an acute migraine attack that lasted 72 hours. […] On the next day the subject received a single dose of 50 mg S-ethylisothiouronium diethylphosphate (2 tablets of 25 mg each). […] Between 10 to 15 minutes following administration the pain abruptly disappeared, as did all other symptoms, which appeared during the migraine attack.
Second attack: (three weeks later) The second migraine attack started during the night. On the next day the subject received once again 2 tablets of S-ethylisothiouronium diethylphosphate (50 mg). This time the intake of the tablets was during the peak of the migraine attack, after having a meal. Within 20 minutes the headache was relieved, the subject was able to focus their eyesight, and the photophobia disappeared. There was a weak headache but its intensity was reduced. Three hours later the subject took two more tablets of S-ethylisothiouronium diethylphosphate (50 mg). Within 15 minutes the migraine pain disappeared.
Third attack: (two and a half weeks after the second attack) the migraine attack started on their way to work. An hour after onset within the peak of the migraine attack, the subject received 2 tablets of S-ethylisothiouronium diethylphosphate (each of 25 mg). Drug was taken on empty stomach. Within 11 minutes the migraine symptoms disappeared.
Previous Medical History: The subject is a non-smoking person suffering from migraine attacks during the last two years. The frequency of the migraine attacks is once a month before the menstruation period. The pain appears in the temples, the sinuses and spreads down to the lower jaw. The duration of the photophobia was about 48 hours. So far the subject has not applied to receive specific medical treatment and used to take conventional analgesic drugs.
First attack: The onset of an acute migraine attack was in the morning and the symptoms grew stronger during the day. Just before noon time the subject received one tablet of S-ethylisothiouronium diethylphosphate (25 mg). […] Two hours later the subject received 2 more tablets of S-ethylisothiouronium diethylphosphate (each of 25 mg). Ten minutes later, the migraine pain disappeared.
Second attack: (about four weeks after the first attack) The migraine attack started as a consequence of very hot weather conditions. The intensity of this attack was greater than the usual migraine attacks. In the morning, the subject received 2 tablets of S-ethylisothiouronium diethylphosphate (50 mg) that were taken on an empty stomach. Within 20 minutes of S-ethylisothiouronium diethylphosphate intake there was a significant relief in migraine pain. Fifteen minutes later the pain disappeared. Later that day, during the afternoon, the subject suffered a weak pain. This time the subject self administered analgesic drugs and the pain disappeared.

[2] = therapeutic doses; cited from earlier work
[3] = system: acute migraine attack (headache); assay: Dose escalating exploratory study of Difetur tablets for acute migraine attack: headache reduction; assay type: in vivo, human; details: for Percentage of Patients Benefited by Treatment: headache grade 3-4 reduced to 1-2; for Time elapsed to Effect: time after ingestion to headache grade 1-2
Method: Dose escalating exploratory study on the safety and efficacy of Difetur tablets for the treatment of acute migraine attack.
(§1) The purpose of following exploratory protocol is to evaluate the safety and potential efficacy of Difetur (S-ethylisothiouronium diethylphosphate) tablets, in escalating doses starting at 10 mg and up to 50 mg, in the treatment of a single acute migraine attack. The study was designed as an open study in a selected population of subjects classified according to IHS criteria as suffering from migraine headaches of moderate or severe intensity, without aura. The study was conducted according to established international criteria for evaluating safety and efficacy for migraine treatment.
(§2) The study was performed as a 5 arm (groups) study. Only female patients classified as suffering from migraine without aura, according to IHS criteria are enrolled in the study. Each group consists of ten migraine patients who are treated during an acute migraine attack with Difetur tablets in a hospital setting. The initial dose of Difetur is 10 mg (1 tablet), consequently increasing to 20 mg, 30 mg, 40 mg, and 50 mg. The total number of patients to be enrolled is 50. The patients are hospitalized and followed for at least 4 hours to assess the safety, efficacy and possible side effects of Difetur.
In the first group of 10 patients each receive the initial dose of 10 mg of the study medication in a single tablet form. The dose of 50 mg is given as two tablets of 25 mg each. The tablets are individually packed in blister package, and have a label identifying the study medication as an investigational drug. Each dose in an escalating manner is given to 10 patients. The medication is swallowed with a glass of water under the supervision of an attending physician.
Headache severity is graded verbally in a 4-points scale: severe (grade 4), moderate (grade 3), mild (grade 2), or no pain (grade 1). Success is considered as a reduction of the headache severity from a severe or moderate headache (grade 3-4) to mild or no pain (grade 1-2).

[4] = system: emesis during migraine attack; assay: Difetur tablets: emesis/nausea treatment during migraine attack; assay type: in vivo, human
Method: as §1, §2
4.2 Secondary Efficacy Targets are the Reduction of Nausea, Vomiting and Light And Sound Sensitivity.
These are assigned for their presence, absence or disappearance as documented by the patient.

[5] = system: acute migraine attack (headache); assay: Clinical trial of intravenous Difetur 10% solution in acute migraine attack; assay type: in vivo, human; details: for Percentage of Patients Benefited by Treatment / Mean time elapsed to Effect: 0.6 mg/kg IV drip; for Mean time elapsed to Effect: to grade 1-0
Method: as §1, with “protocol was” for “protocol is”, “Difetur 10% solution for injection,” for “Difetur (S-ethylisothiouronium diethylphosphate) tablets,”, “in dose 0.6 mg/kg,” for “in escalating doses starting at 10 mg and up to 50 mg,”, “in” for “in the”
Difetur was presented as 10% (100 mg/mL) solution in 1 mL ampoules. It was dissolved in 100 mL of saline solution in intravenous device before treatment. The dose of Difetur was 0.6 mg/kg, given by intravenous drip during 10 min.
Headache severity was graded verbally on a 5-point scale: very severe (grade 4), severe (grade 3), moderate (grade 2), mild (grade 1), no pain (grade 0). Success was considered as reduction of the headache severity from very severe, severe or moderate (grade 4-2) to mild or no pain (grade 1-0).

[6] = Case 2, second attack, 50 mg oral, empty stomach

CNS(=O)(=O)Cc1ccc2[nH]cc(CCN(C)C)c2c1 [Imitrex, Sumatriptan succinate, reference compound]
Side effects of past medical treatment [1]: various strong side effects

CN(C)CCc1c[nH]c2ccc(C[C@H]3COC(=O)N3)cc12 [Zomig, reference compound]
Side effects of past medical treatment [1]: various strong side effects

CN1C[C@H](C(=O)N[C@]2(C)O[C@@]3(O)[C@@H]4CCCN4C(=O)[C@H](Cc4ccccc4)N3C2=O)C=C2c3cccc4[nH]cc(c34)C[C@H]21 [ergotamine]
Patients with nausea and vomiting [2]: up to 10%

S-ethylisothiouronium diethylphosphate [Difetur]
Percentage of Patients Benefited by Treatment ([3]; 10 mg oral tablet): 0% | Percentage of Patients Benefited by Treatment ([3]; 20 mg oral): 70% | Time elapsed to Effect ([3]; 20 mg oral): 43 min | Percentage of Patients Benefited by Treatment ([3]; 30 mg oral): 70% | Time elapsed to Effect ([3]; 30 mg oral): 58 min | Side effects ([3]; clinical trials, human subjects): no side effects | Time to dramatic improvement ([3]; in some cases): ≤ 15 min | Time to reduction of migraine symptoms, on average ([3]; oral, at peak of migraine attack): around 45 minutes | Time to relief ([3]; treatment initiated at peak of migraine attack): ≤ 60 min | Percentage of Patients Affected by Treatment (positive anti-emetic response) ([4]; 10 mg oral): 70% | Time elapsed until Effect (termination of emesis) ([4]; 10 mg oral): 28 min | Percentage of Patients Affected by Treatment (positive anti-emetic response) ([4]; 20 mg oral): 100% | Time elapsed until Effect (termination of emesis) ([4]; 20 mg oral): 25 min | Percentage of Patients Affected by Treatment (positive anti-emetic response) ([4]; 30 mg oral): 100% | Time elapsed until Effect (termination of emesis) ([4]; 30 mg oral): 29 min | Effect of low doses on nausea ([4]; low doses ineffective or less effective on headache): effective at reducing or abolishing the symptoms of nausea | Percentage of Patients Benefited by Treatment ([5]; headache grade 2): 87% | Mean time elapsed to Effect ([5]; headache grade 2): 13.7 min | Percentage of Patients Benefited by Treatment ([5]; headache grade 3): 100% | Mean time elapsed to Effect ([5]; headache grade 3): 25.5 min | Percentage of Patients Benefited by Treatment ([5]; headache grade 4): 100% | Mean time elapsed to Effect ([5]; headache grade 4): 50 min | Headache relief, overall ([5]; 0.6 mg/kg IV, 13 patients, all except one): significant headache relief | Side effects ([1]; Case 1, 50 mg oral): No side effects | Time to headache relief ([1]; Case 1, second attack, 50 mg oral, after a meal): ≤ 20 min | Time to disappearance of migraine pain ([1]; Case 1, second attack, further 50 mg three hours later): ≤ 15 min | Time to disappearance of migraine symptoms ([1]; Case 1, third attack, 50 mg oral, empty stomach): ≤ 11 min | Frequency of migraine attacks after treatment ([1]; Case 1, previously seven episodes per month): about three | Side effects ([1]; Case 2, 25 or 50 mg oral): No side effects | Time to disappearance of migraine pain ([1]; Case 2, first attack, 2 more 25 mg tablets two hours later): Ten | Change in migraine pain ([1]; Case 2, first attack, one 25 mg tablet): No substantial change | Time from significant relief to disappearance of pain [1, 6]: Fifteen | Time to significant relief in migraine pain [1, 6]: ≤ 20 min | Time to elimination of migraine symptoms ([1]; both case reports, at peak of attack): less than 20 minutes | Headache recurrence (rebound/relapse) ([1]; case reports): not observed
